Laboratory results from publication PMC9889419 (Pharmacological Reports, 2022).
Counter-ions that a name gives are not always drawn.

What was measured:
rats [1] = assay: Rotarod / TOX (neurotoxicity); details: for Rotarod TD50: rats
Protocol: The assays were carried out within the Epilepsy Therapy Screening Program (ETSP, previously known as the Anticonvulsant Screening Program, ASP), Epilepsy Branch, National Institute of Neurological and Communicative Disorders and Stroke, National Institutes of Health in Rockville, MD, USA [23].
The obtained compounds were screened for antiseizure activity and neurotoxicity in vivo within the Epilepsy Therapy Screening Program (ETSP, previously known as the Anticonvulsant Screening Program, ASP), Epilepsy Branch, National Institute of Neurological and Communicative Disorders and Stroke, National Institutes of Health in Rockville, MD, USA [23].

NMDA = assay: Electrophysiology studies (Test 17); assay type: cell-based; details: 100 uM, holding potential -70 mV
From the text: Solvent Code: DMSO Solvent Prep: 257.759
Test Add CompoundConc.(uM) # Cells % Control +/- SEM
(§1) (1 picture or pasted object on this page, not shown here)

mice [2] = assay: Picrotoxin-induced seizures; assay type: in vivo; details: ip
[3] = system: CYP1A2 (aryl hydrocarbon receptor); assay: In vitro metabolic gene induction studies; assay type: cell-based, human
Protocol: Anticonvulsant Screening prog ram
Test 28 - In Vitro Metabolic Gene Induction Studies
SolventCode: DMSO Solvent Prep: Unit: uM
Cell line source: Puracyp Molecular 257.7590
DateStarted: O5+eb-2O1O Date Completed: 15+eb-2010 Weig ht:
Reference: Lamb boolc#t! p9.77
lsoform Code: CyplAz Cell line: lAzDRE
Inducffon mechanism: aryl hydrocarbon receptor
Concentration Induction Cell
Fold +/- S.D Viability +/- S.D
0 1 +t- o.cs n 1n +L 2.2o n
Max induction 2 fold @ 200uM
. '^ (calculated): slgnificant decrease in viability at this concentation in vitso.
as §1

hERG = biological target: T1, hERG (Homo sapiens, UniProt Q12809); assay: Radioligand binding; details: read-out: % of control specific binding
T1 construct: purchased Eurofins CEREP
Protocol: Radioligand binding. Radioligand binding assays were performed at Eurofins CEREP (France). The results are expressed as a percent of control specific binding (measured specific binding*100/control specific binding) and as a percent inhibition of control specific binding (100-(measured specific binding*100)/control specific binding) obtained in the presence of the test compounds. The IC50 values (concentration causing a half-maximal inhibition of control specific binding) and Hill coefficients (nH) were determined by non-linear regression analysis of the competition curves generated with mean replicate values using Hill equation curve fitting (Y = D + [A-D]/[1 + (C/C50)^nH], where Y = specific binding, A = left asymptote of the curve, D = right asymptote of the curve, C = compound concentration, C50 = IC50, and nH = slope factor). […] The inhibition constants (Ki) were calculated using the Cheng Prusoff equation (Ki = IC50/[1 + L/KD], where L = concentration of radioligand in the assay, and KD = affinity of the radioligand for the receptor).

MTT assay = assay type: cell-based, murine; details: mouse, astrocyte cell line (ATCC CRL-2541); 250 µM; read-out: cell viability compared to control
Protocol: Cells were seeded at a density of 1 × 10^4 cells per well in 96 well plates. […] Next, Crystal Dissolving Solution (Cayman) was added to each well.

rats [4] = assay: Whole body plethysmography; assay type: in vivo; details: 6, 10 and 20 mg/kg ip, 4-h test period
Protocol: Whole body plethysmography. The method, which detects the effects of a test substance on airway function, follows that described by Chong et al. and by Hamelmann et al.. Rats were placed individually in a single chamber plethysmograph (Buxco) in which they can move and drink freely. After a habituation period of 150 min, the following parameters were recorded: inspiratory time, expiratory time, peak inspiratory flow, peak expiratory flow, tidal volume, respiratory rate, relaxation time, pause, enhanced pause. All data generated were acquired using specialized EMKA Technologies software (lOX version 1.7.0; ANALYST version 1.49), connected to Buxco plethysmographic equipment. Recordings were taken for 30 min before and for 4 h after administration of the test substance. […] Each time point represented the mean value of a 2-min block (recorded 1 min before and 1 min after each time point). In cases where the data can be considered invalid, for example if recorded during a period of sniffing thereby causing a brief period of increased respiratory frequency, the retained values were those as close as possible to the theoretical time point. Results were expressed as absolute values and as percent changes from initial mean values (T0). […] Each test substance was evaluated at 3 doses (6 mg/kg, 10 mg/kg, and 20 mg/kg), administered ip, and compared with a vehicle control group. […]

hNav1.1 sodium channel = biological target: T2, hNav1.1 sodium channel (Homo sapiens, UniProt P35498); assay: Nav channel electrophysiology (IonWorks Quattro); assay type: cell-based
T2 construct: host or cells: CHO cells

hNav1.3 sodium channel = biological target: T3, hNav1.3 sodium channel (Homo sapiens, UniProt Q9NY46); assay: Nav channel electrophysiology (IonWorks Quattro); assay type: cell-based
T3 construct: host or cells: CHO cells

hNav1.2 sodium channel = biological target: T4, hNav1.2 sodium channel (Homo sapiens, UniProt Q99250); assay: Nav channel electrophysiology (IonWorks Quattro); assay type: cell-based
T4 construct: host or cells: CHO cells

mice [5] = assay: Writhing test; assay type: in vivo; details: 30 mg/kg
Protocol: Inflammatory acute pain—writhing test. In this test, mice were placed individually into glass beakers and were allowed to habituate for the next 30 min. Then, each mouse was injected with tested compound, dissolved in saline (at a dose 30 mg/kg) or vehicle, and then placed back into the glass beaker for 30 min. To induce inflammatory pain, 0.9% acetic acid solution (Polskie Odczynniki Chemiczne, Poland) prepared in saline was injected by the intraperitoneal route. Mice were placed in the beakers again and were observed continuously for the next 30 min. Stereotypical writhes (lengthwise constrictions of the torso with a concomitant concave arching of the back) were counted over this period in drug-treated and control mice.

α1 (non-selective) = assay: Radioligand binding; design: species or system rat
Protocol: Radioligand binding. Radioligand binding assays were performed at Eurofins CEREP (France). The results are expressed as a percent of control specific binding (measured specific binding*100/control specific binding) and as a percent inhibition of control specific binding (100-(measured specific binding*100)/control specific binding) obtained in the presence of the test compounds. The IC50 values (concentration causing a half-maximal inhibition of control specific binding) and Hill coefficients (nH) were determined by non-linear regression analysis of the competition curves generated with mean replicate values using Hill equation curve fitting (Y = D + [A-D]/[1 + (C/C50)^nH], where Y = specific binding, A = left asymptote of the curve, D = right asymptote of the curve, C = compound concentration, C50 = IC50, and nH = slope factor). This analysis was performed using software developed at Cerep (Hill software) and validated by comparison with data generated by the commercial software SigmaPlot® 4.0 for Windows® (© 1997 by SPSS Inc.). The inhibition constants (Ki) were calculated using the Cheng Prusoff equation (Ki = IC50/[1 + L/KD], where L = concentration of radioligand in the assay, and KD = affinity of the radioligand for the receptor). A scatchard plot is used to determine the Kd.

mice [6] = assay: Capsaicin test; assay type: in vivo
Protocol: Neurogenic pain—capsaicin test. In this test compound dissolved in saline was tested at doses 5, 10, and 30 mg/kg. Compound was administered ip and 30 min later 1.6 μg of capsaicin (Sigma-Aldrich, Germany) dissolved in 20 μL of a mixture containing 0.9% saline and ethanol (5% of the final volume) was injected intraplantarly in the ventral surface of the right-hind paw of each mouse. The animals were observed individually for 5 min following capsaicin injection. In all experimental groups, the amount of time spent on licking, biting, or lifting the injected paw was recorded with a chronometer and was considered as an indicator of nociception.

murine astrocytes = assay: Crystal violet (CV) assay; assay type: cell-based
Protocol: CV assay. Cells were seeded at a density of 1 × 10^4 cells per well in 96-well plates.

T3 sequence (Q9NY46 whole entry): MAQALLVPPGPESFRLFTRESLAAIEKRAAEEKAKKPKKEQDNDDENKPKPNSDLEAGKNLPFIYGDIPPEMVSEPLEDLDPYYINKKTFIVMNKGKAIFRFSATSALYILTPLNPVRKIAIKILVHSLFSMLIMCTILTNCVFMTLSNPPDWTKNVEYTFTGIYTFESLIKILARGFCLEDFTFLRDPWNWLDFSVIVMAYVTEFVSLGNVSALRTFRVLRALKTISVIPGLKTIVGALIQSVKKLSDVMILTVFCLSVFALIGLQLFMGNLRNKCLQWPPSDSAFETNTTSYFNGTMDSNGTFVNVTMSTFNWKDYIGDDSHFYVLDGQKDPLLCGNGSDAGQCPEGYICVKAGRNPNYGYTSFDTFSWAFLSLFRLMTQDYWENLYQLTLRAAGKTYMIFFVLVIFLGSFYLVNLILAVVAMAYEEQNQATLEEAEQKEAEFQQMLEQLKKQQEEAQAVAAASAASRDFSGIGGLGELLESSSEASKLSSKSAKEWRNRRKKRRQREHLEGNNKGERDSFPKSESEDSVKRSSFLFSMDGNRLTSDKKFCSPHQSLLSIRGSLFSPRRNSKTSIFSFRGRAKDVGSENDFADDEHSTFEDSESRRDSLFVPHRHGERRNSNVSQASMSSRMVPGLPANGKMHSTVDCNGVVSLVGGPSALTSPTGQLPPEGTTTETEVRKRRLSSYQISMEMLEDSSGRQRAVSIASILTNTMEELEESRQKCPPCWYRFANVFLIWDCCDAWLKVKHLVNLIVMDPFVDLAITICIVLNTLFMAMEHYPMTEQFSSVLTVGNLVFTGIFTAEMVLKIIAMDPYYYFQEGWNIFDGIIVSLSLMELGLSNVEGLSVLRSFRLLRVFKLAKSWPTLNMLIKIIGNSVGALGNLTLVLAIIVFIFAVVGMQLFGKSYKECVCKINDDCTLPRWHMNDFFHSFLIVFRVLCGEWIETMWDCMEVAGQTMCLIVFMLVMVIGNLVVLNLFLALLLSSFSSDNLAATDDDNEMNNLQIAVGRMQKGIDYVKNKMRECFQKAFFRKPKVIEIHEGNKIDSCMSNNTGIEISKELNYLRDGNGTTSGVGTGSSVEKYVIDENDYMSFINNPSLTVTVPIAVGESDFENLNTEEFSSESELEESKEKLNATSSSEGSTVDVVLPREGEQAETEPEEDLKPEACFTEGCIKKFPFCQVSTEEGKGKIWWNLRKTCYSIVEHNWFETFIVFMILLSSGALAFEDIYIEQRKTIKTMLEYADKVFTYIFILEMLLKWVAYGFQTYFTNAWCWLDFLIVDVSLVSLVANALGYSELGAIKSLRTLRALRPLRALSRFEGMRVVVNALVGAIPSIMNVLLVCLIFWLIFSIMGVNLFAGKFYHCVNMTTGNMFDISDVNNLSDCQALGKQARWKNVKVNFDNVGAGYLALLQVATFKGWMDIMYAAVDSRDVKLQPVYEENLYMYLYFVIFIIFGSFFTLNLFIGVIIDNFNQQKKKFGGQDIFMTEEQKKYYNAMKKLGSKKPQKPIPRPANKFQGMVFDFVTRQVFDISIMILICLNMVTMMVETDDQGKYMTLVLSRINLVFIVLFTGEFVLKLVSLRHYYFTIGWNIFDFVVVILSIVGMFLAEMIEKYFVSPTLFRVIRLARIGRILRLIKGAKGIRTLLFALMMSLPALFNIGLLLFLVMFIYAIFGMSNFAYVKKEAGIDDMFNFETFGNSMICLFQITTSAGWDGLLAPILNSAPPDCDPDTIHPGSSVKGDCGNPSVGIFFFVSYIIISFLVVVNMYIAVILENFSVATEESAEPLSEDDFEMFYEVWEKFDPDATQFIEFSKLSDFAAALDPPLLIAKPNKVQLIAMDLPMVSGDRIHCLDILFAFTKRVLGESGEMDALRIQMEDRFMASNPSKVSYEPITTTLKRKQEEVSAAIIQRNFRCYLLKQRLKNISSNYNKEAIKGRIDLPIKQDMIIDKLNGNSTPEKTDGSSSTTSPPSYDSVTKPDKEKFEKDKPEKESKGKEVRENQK
T4 sequence (Q99250 whole entry): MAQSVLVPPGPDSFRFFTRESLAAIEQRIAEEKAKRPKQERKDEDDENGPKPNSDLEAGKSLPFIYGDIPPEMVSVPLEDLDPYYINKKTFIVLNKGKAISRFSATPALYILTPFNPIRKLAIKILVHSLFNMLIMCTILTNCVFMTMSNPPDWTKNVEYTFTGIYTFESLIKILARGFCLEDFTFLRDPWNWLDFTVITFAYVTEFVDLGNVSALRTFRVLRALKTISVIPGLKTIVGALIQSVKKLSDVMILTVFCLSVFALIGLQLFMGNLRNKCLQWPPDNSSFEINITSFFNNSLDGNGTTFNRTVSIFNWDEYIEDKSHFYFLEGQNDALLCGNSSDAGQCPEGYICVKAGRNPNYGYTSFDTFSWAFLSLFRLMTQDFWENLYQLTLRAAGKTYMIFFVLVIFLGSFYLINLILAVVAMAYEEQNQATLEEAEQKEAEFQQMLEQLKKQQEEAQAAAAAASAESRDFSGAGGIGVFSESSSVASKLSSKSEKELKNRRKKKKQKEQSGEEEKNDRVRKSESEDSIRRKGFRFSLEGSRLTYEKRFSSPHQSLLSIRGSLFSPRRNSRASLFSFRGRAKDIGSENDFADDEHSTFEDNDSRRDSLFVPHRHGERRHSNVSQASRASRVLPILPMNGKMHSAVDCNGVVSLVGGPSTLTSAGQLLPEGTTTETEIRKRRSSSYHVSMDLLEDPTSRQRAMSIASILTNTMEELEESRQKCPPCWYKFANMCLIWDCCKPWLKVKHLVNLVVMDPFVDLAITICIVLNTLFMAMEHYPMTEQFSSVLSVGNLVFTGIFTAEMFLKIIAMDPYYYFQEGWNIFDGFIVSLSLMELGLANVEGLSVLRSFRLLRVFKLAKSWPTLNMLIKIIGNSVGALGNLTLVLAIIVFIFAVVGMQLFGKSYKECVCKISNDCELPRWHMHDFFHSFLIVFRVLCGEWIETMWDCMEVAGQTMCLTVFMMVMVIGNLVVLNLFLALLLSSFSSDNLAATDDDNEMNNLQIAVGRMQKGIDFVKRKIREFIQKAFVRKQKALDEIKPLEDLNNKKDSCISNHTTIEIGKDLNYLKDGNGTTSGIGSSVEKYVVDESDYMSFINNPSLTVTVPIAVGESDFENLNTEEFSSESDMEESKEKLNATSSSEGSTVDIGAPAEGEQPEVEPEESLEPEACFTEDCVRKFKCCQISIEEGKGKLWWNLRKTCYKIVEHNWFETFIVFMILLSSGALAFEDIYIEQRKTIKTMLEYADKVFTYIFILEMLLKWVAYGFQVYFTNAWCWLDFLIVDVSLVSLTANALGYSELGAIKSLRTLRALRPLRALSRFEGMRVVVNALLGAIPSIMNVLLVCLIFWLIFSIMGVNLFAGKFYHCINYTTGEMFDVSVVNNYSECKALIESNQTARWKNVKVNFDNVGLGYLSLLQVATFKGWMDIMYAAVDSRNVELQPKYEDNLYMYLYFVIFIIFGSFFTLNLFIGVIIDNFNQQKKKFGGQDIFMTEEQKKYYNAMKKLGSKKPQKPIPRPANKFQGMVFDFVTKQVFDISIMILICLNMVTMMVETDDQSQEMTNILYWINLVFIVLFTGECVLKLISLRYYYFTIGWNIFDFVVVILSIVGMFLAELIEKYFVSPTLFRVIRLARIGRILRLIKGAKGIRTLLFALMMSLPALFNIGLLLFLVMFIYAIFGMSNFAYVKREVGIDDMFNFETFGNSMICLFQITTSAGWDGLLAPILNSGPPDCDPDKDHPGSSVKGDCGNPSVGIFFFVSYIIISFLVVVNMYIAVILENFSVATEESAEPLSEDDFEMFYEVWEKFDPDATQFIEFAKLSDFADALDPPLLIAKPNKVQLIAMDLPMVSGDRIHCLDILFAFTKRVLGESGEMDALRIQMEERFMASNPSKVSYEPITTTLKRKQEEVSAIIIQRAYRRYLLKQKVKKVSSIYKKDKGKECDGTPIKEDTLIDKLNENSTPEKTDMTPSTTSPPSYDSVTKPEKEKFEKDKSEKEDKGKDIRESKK
T1 sequence (Q12809 whole entry): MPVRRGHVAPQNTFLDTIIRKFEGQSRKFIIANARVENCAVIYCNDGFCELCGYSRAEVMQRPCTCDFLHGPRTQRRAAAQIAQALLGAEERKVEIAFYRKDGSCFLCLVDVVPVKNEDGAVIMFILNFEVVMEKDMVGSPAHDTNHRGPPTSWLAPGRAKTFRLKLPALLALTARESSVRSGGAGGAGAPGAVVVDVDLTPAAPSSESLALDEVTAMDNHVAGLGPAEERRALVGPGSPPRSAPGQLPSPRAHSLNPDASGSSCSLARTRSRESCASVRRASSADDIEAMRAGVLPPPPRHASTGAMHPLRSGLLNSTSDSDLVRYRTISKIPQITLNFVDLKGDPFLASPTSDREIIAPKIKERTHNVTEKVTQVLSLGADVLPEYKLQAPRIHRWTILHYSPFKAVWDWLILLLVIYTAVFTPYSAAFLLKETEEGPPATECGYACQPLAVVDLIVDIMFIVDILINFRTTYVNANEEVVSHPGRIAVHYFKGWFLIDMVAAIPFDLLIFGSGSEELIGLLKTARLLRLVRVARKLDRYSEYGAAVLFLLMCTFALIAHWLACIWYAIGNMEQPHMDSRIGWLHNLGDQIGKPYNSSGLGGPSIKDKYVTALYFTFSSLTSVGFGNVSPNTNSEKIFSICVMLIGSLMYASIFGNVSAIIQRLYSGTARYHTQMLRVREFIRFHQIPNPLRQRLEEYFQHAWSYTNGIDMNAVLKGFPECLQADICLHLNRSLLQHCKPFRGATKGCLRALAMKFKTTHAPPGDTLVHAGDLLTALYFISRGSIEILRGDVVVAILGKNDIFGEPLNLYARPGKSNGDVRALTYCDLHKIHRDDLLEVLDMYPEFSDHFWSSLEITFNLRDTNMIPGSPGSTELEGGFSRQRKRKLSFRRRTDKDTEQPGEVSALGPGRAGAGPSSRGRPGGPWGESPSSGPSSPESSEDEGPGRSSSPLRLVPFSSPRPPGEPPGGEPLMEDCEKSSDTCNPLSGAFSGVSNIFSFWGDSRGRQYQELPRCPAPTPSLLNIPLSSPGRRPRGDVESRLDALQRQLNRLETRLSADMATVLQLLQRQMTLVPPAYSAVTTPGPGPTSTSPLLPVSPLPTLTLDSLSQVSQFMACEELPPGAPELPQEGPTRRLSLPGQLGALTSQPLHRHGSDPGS

CCC(CO)NCCOc1c(C)cccc1Cl (stereo not shown) [Compound 4, R,S-2-((2-(2-chloro-6-methylphenoxy)ethyl)amino)butan-1-ol]
Rotarod TD50 (rats [1]; ip, listed as 348014): < 50 mg/kg | Rotarod TD50 (rats [1]; po): > 240 mg/kg | TOX TD50 (rats [1]; report of 16-Aug-2004 (rats, po)): > 60 mg/kg | % Control +/- SEM (NMDA): 63% | Picrotoxin-induced seizures ED50 (mice [2]): > 70 mg/kg | EC50 ([3]; 1A2DRE cell line, read-out: EC50 (calculated)): 37 µM | Max induction (calculated) ([3]; @ 200uM): 2 fold

CCC(CO)NCCOc1c(C)cccc1Cl (stereo not shown) [KM-408, R,S-2-((2-(2-chloro-6-methylphenoxy)ethyl)amino)butan-1-ol hydrochloride]
activity at 100 µM (hERG): 26.1% | viability at 24 h, 250 µM (MTT assay): 81% | effects on respiratory parameters (rats [4]): No significant effects | IC50 (hNav1.1 sodium channel; 10 Hz): 17.5 µM | IC50 (hNav1.1 sodium channel; Inactivated state): < 10 µM | IC50 (hNav1.1 sodium channel; Tonic block): 64.2 µM | IC50 (hNav1.3 sodium channel; 10 Hz): 13.1 µM | IC50 (hNav1.3 sodium channel; Inactivated state): < 10 µM | IC50 (hNav1.3 sodium channel; Tonic block): 49.2 µM | IC50 (hNav1.2 sodium channel; 10 Hz): 15.6 µM | IC50 (hNav1.2 sodium channel; Inactivated state): < 10 µM | IC50 (hNav1.2 sodium channel; Tonic block): 48.7 µM | effect on acetic acid-induced writhing (mice [5]): not significantly effective | IC50 (α1 (non-selective)): 12 µM | Ki (α1 (non-selective)): 3.3 µM | % of control specific binding (α1 (non-selective); 0.01 μM): 102.4% | % of control specific binding (α1 (non-selective); 0.1 μM): 97.3% | % of control specific binding (α1 (non-selective); 1 μM): 90.0% | % of control specific binding (α1 (non-selective); 10 μM): 55.9% | % of control specific binding (α1 (non-selective); 100 μM): 12.8% | reduction of nociceptive response (mice [6]; 5 mg/kg ip, not significant): 19% | licking response (mice [6]; 10 mg/kg ip): 42.7 ± 5.6 s | reduction of licking response (mice [6]; 10 mg/kg ip): 38% | licking response (mice [6]; 30 mg/kg ip): 27.7 ± 5.7 s | reduction of licking response (mice [6]; 30 mg/kg ip): 60% | ED50 (mice [6]; Mus musculus, mice, ip): 19 mg/kg | impact on proliferation (crystal violet) (murine astrocytes): did not exhibit cytotoxic activity and a notable impact on proliferation
